The target of one assay is T1, RIPK1 kinase (Homo sapiens, UniProt Q13546).
T1 construct: purchased Promega VA7593
T1 sequence (Q13546 1-671): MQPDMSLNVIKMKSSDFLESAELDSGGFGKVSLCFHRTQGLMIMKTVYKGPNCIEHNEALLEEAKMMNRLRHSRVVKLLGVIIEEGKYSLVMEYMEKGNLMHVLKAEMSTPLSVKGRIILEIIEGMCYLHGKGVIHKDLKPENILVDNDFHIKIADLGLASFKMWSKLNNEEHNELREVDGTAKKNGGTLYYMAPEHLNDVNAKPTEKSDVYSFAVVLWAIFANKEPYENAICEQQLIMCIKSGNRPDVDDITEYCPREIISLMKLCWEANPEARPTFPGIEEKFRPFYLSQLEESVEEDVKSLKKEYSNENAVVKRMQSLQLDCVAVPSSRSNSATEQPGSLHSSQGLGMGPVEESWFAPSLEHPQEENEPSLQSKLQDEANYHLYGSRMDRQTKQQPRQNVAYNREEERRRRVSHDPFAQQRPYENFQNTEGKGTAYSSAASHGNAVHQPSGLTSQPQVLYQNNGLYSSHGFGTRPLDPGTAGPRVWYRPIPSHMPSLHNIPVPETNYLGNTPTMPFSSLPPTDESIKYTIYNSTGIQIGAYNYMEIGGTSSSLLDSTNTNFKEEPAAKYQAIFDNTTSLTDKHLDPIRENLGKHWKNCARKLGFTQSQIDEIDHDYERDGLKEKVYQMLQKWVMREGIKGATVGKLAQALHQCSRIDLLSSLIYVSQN
In words: In vitro RIPK1 kinase activity assay (ADP-Glo), inhibition by compounds at 1 μM. The assay is classed as biochemical. Particulars: compound 1 μM; ATP 10 μM; MBP substrate 100 μg/mL; read-out: RIPK1 kinase activity inhibition rate range. An outline of the steps: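 Compound and RIPK1 were preincubated 15 min at room temperature, then reacted 1 h with 10 μM ATP and 100 μg/mL MBP substrate in kinase buffer D. ADP formed was measured by ADP-Glo luminescence and converted to percent inhibition of kinase activity.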
For orientation: ADP-Glo turns the ADP formed in a reaction into a luminescent signal.

For assay [1], the system named is U937 cells. As to the kind of experiment: Inhibition rate of compound (1 μM) on necroptosis of U937 cells (TSZ-induced, CellTiter-Glo). Particulars: TSZ (hTNF-α, SM-164, Z-VAD-FMK) 20 hours. It is filed as cell-based. An outline of the steps: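 U937 cells were pretreated 15 min with compound, then necroptosis was triggered with TSZ (Z-VAD-FMK, hTNF-α, SM-164) for 20 h at 37° C. Viability was read as ATP by CellTiter-Glo luminescence, and inhibition (%) was taken relative to no-TSZ and TSZ-only wells.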
For orientation: ATP-based viability assays read luminescence as a measure of living cells.

Assay [2] concerns U937 cells. As to the kind of experiment: EC50 of necroptosis inhibition in U937 cells (TSZ-induced, CellTiter-Glo). It is filed as cell-based. The note with it: Homo sapiens, U-937; TSZ (hTNF-α, SM-164, Z-VAD-FMK) 20 hours; 10 concentration points; read-out: EC50 intervals of necroptosis inhibition in U937 cells. In short, it runs like this:
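U937 cells pretreated 15 min with compound (10-point, 1:3 series), then necroptosis induced by TSZ (hTNF-α, SM-164, Z-VAD-FMK) for 20 h at 37 °C. Viability measured as ATP by CellTiter-Glo luminescence; inhibition normalised to untreated and TSZ-only wells, EC50 from four-parameter fit.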

As for `CN1CCC(C#Cc2ccc3c(c2)N(C)C(=O)[C@@H](NC(=O)C(=O)NCCc2ccccc2)CO3)CC1` [Example 73, (S)—N^1-(5-methyl-7-((1-methylpiperidin-4-yl)ethynyl)-4-oxo-2,3,4,5-tetrahydrobenzo[b][1,4]oxazepin-3-yl)-N^2-phenethyloxalamide], the inhibition at 1 µM at RIPK1 kinase is no less than 75%. Besides, the “Inhibition rate range of compounds (1 μM) on U937 cell necroptosis” value (shortened to “Inhibition rate range of compounds”) with U937 cells [1] is listed as “A (A: ≥90%)”. The EC50 with U937 cells [2] is less than 100 nM.
For `CN(C)c1ccc(C#Cc2ccc3c(c2)N(C)C(=O)[C@@H](NC(=O)C(=O)NCCc2ccccc2)CO3)cc1` [Example 75, (S)—N^1-(7-((4-(dimethylamino)phenyl)ethynyl)-5-methyl-4-oxo-2,3,4,5-tetrahydrobenzo[b][1,4]oxazepin-3-yl)-N^2-phenethyloxalamide], the inhibition at 1 µM on RIPK1 kinase lay in the range of 25 to 49%. Moreover, the “Inhibition rate range of compounds” value with U937 cells [1] is reported as “A (A: ≥90%)”. The EC50 in the assay with U937 cells [2] is less than 100 nM.
Consider `CN1C(=O)[C@@H](NC(=O)C(=O)NCCc2ccccc2)COc2ccc(C#CCN3CCN(CCO)CC3)cc21` [Example 83, (S)—N^1-(7-(3-(4-(2-hydroxyethyl)piperazin-1-yl)prop-1-yn-1-yl)-5-methyl-4-oxo-2,3,4,5-tetrahydrobenzo[b][1,4]oxazepin-3-yl)-N^2-phenethyloxalamide], for which the inhibition at 1 µM at RIPK1 kinase is no less than 75%. In addition, the “Inhibition rate range of compounds” value in the assay on U937 cells [1] was “A (A: ≥90%)”. The EC50 in the assay on U937 cells [2] is less than 100 nM.
The matching figures for `CN1C(=O)[C@@H](NC(=O)C(=O)NCCc2ccccc2)COc2ccc(C#CCN)cc21.Cl` [Example 87, (S)—N^1-(7-(3-aminoprop-1-yn-1-yl)-5-methyl-4-oxo-2,3,4,5-tetrahydrobenzo[b][1,4]oxazepin-3-yl)-N^2-phenethyloxalamide hydrochloride]: 25 to 49%, “B (B: 50-89%)” and 500 to 2000 nM.
The matching figures for `CC(=O)N1CC(O)(C#Cc2ccc3c(c2)N(C)C(=O)[C@@H](NC(=O)C(=O)NCCc2ccccc2)CO3)C1` [Example 93, (S)—N^1-(7-((1-acetyl-3-hydroxyazetidin-3-yl)ethynyl)-5-methyl-4-oxo-2,3,4,5-tetrahydrobenzo[b][1,4]oxazepin-3-yl)-N^2-phenethyloxalamide]: no less than 75%, “A (A: ≥90%)” and 100 to 500 nM.
The matching figures for `CN1C(=O)[C@@H](NC(=O)C(=O)NCCc2ccccc2)COc2ccc(C#CCCC(=O)O)cc21` [Example 95, (S)-5-(5-methyl-4-oxo-3-(2-oxo-2-(phenethylamino)acetamido)-2,3,4,5-tetrahydrobenzo[b][1,4]oxazepin-7-yl) pent-4-ynoic acid]: no less than 75%, “B (B: 50-89%)” and 500 to 2000 nM.
As for `CN1C(=O)[C@@H](NC(=O)C(=O)NCCc2cccc(F)c2)COc2ccccc21` [Example 100, (S)—N^1-(3-fluorophenethyl)-N^2-(5-methyl-4-oxo-2,3,4,5-tetrahydrobenzo[b][1,4]oxazepin-3-yl)oxamalide], the inhibition at 1 µM on RIPK1 kinase is no less than 75%. The “Inhibition rate range of compounds” value with U937 cells [1] is listed as “B (B: 50-89%)”. For the same compound, the EC50 in the assay on U937 cells [2] lay within 100 to 500 nM.
The matching figures for `CN1C(=O)[C@@H](NC(=O)C(=O)NCc2cc(F)cc(F)c2)COc2ccccc21` [Example 102, (S)—N^1-(3,5-difluorobenzyl)-N^2-(5-methyl-4-oxo-2,3,4,5-tetrahydrobenzo[b][1,4]oxazepin-3-yl)oxalamide]: 25 to 49%, “B (B: 50-89%)” and 500 to 2000 nM.

As a reminder, the inhibition is the percentage by which the read-out fell short of the control. One may read the EC50 as the concentration needed to bring the measured effect to its halfway point.

For the origin of these results see US20250368633A1, “AZEPINE FUSED RING COMPOUND AS RIPK1 INHIBITOR AND USE THEREOF” (ARTIVILA BIOPHARMA, priority 2022, published 2025).
